Calls of active or inactive are those of the source. For most assays here, no stated cut-off is given here; in the data, actives have a measured AC50 and inactives only a lower limit.
Experiments:
[1] = HEK293 Cytotoxicity Assay Measured in Cell-Based System Using Plate Reader - 7071-01_Inhibitor_Dose_CherryPick_Activity_Set2.; assay type: functional
[2] = system: HEK293; experiment: viability loss in HEK293T cells – cell-based, ATP luminescence, cherry-pick samples, cytotoxicity control, dose response (AID 687005); assay type: functional; settings: Homo sapiens;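 further: cells exposed to compound for 48 hours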
[3] = blockers of bursicon-stimulated LGR2 cAMP reporter – cell-based, HEK293, CRE-luciferase reporter, cherry pick, set 2, dose response (AID 743343); assay type: functional;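 further: transfected cells were stimulated with diluted bursicon conditioned medium after compound addition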
[4] = viability loss in HEK293 cells – cell-based, plate reader, cherry-picked samples, cytotoxicity control, dose response (AID 743446); assay type: functional
[5] = A549 cell cytotoxicity, dose response, cytotoxicity control, plate reader, cherry-pick, antagonist series (AID 743412); assay type: functional, cell-based
[6] = system: HEK293; experiment: EBV LMP1 TES2 canonical NF-kB signalling blockers – cell-based, HEK293, luciferase, cherry-pick, dose response (AID 588343); assay type: functional; settings: Homo sapiens
[7] = toxicity toward HepG2 liver cells – cell-based, plate reader, cherry-pick, antagonist series, cytotoxicity control, dose response (AID 743416); assay type: functional
[8] = blockade of melanocortin 4 receptor signaling – cell-based, plate reader, cherry pick, counter-screen for LGR2 antagonist project, dose response (AID 743444); assay type: functional;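 further: transfected HEK 293 cells stimulated with alpha-MSH peptide; potency of inhibitors of the alpha-MSH evoked signal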
[9] = cells; assay type: functional, cell-based; settings: HEK-CNG
[10] = blockers of HIV-1 envelope-mediated cell-cell fusion – cherry-pick, dose response (AID 652057); assay type: functional, cell-based
[11] = HIV-1 AD8 envelope cell-cell fusion blockers – cherry-pick, dose response (AID 652062); assay type: functional, cell-based;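 further: luciferase signal from cell-cell fusion driven by HIV-1 clade B AD8 Env; potency is for inhibitors of fusion seen as a drop in luminescence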
[12] = target: COUP transcription factor 2 (Homo sapiens, UniProt P24468); experiment: Luminescence-based cell-based high throughput dose response assay to identify inhibitors of COUP-TFII (NR2F2).; assay type: functional;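 further: HEK293 cells transiently cotransfected with COUP-TFII expression vector and reporter; luciferase reporter luminescence driven by COUP-TFII from the pX2-168 reporter plasmid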
[13] = non-specific 3'UTR reporter inhibition in Clone20-Shn3RL – cell-based, Renilla luciferase, cherry-picked, counter-screen for Shn3 inhibitor project, dose response (AID 624133); assay type: functional
[14] = target: Galanin receptor type 3 (Homo sapiens, UniProt O60755); experiment: Fluorescence-based cell-based primary high throughput dose response assay to identify antagonists of the Galanin Receptor 3 (GalR3).; assay type: functional
[15] = loss of viability in HepG2 cells – cell-based, CellTiter-Glo, cherry-picked, cytotoxicity control for Shn3 inhibitor project, dose response (AID 624134); assay type: functional
[16] = off-target signal loss in HeLa-CEM21 co-culture – HeLa F-luc CTL cells, cherry-picked, counter-screen for HIV-1 Env fusion inhibitor project, dose response (AID 652040); assay type: functional, cell-based;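 further: potency for signal decrease marking cytotoxic or nonspecific inhibition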
[17] = reduction of Shn3 3'UTR-driven luciferase in osteoblasts – cell-based, Clone20 osteoblasts, firefly luciferase, cherry-picked, dose response (AID 624132); assay type: functional;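 further: firefly luciferase luminescence from reporter carrying the Shn3 3'UTR in osteoblasts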
[18] = blockers of HIV-1 ZM109 envelope-driven cell-cell fusion – HeLa effector, CEM target cells, luciferase, cherry-pick, dose response (AID 652058); assay type: functional, cell-based;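 further: luciferase signal from HIV-1 Env mediated cell-cell fusion of effector and target cells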
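Wherever EC50 is given: target is galanin receptor GalR3 read with a cAMP biosensor in HEK293 cells.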

Galanin receptor type 3, sequence (O60755 whole entry): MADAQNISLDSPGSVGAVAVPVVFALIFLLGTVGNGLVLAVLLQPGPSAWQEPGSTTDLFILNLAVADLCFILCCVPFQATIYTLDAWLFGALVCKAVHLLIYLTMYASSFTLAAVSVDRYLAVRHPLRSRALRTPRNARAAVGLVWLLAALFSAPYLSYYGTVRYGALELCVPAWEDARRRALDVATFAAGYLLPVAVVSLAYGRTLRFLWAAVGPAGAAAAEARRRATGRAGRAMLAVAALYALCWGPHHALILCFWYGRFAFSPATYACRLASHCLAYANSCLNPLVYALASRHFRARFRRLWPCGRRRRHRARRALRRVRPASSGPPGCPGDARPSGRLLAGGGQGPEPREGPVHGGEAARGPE
COUP transcription factor 2, sequence (P24468 whole entry): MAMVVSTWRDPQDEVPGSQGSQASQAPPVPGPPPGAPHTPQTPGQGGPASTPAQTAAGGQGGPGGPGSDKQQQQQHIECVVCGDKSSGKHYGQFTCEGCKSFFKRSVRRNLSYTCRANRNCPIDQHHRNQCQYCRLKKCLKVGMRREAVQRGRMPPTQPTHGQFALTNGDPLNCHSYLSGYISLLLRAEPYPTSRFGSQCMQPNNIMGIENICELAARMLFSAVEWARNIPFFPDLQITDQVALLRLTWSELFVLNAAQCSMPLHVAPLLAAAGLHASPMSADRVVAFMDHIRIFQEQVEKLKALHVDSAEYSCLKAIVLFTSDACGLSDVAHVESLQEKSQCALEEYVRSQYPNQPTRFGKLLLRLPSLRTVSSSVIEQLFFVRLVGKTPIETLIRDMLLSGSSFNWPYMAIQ

Compound: O=C(Nc1ccccc1)N1CCCCN2[C@H](C1)[C@H](c1ccc(C#CC3CC3)cc1)[C@@H]2CO
- AC50 [1]: 40.1 µM (active)
- AC50 [2]: 40.1 µM (active)

Compound: O=C(Nc1ccc2c(c1)OCCO2)c1ccccn1
- AC50 [3]: 3.29 µM (active)
- AC50 [4]: 27.3 µM (active)
- AC50 [5]: 19.9 µM (active)
- AC50 [6]: 2.3 µM (active)
- AC50 [7]: 48.5 µM (active)
- AC50 [8]: 2.75 µM (active)

Compound: c1ccc(CNc2ncnc3ccccc23)cc1
- EC50 [9]: > 29.9 µM (inactive)
- AC50 [10]: 10.7 µM (active)
- AC50 [11]: 4.91 µM (active)
- IC50 [12]: 9.32 µM (active)
- AC50 [13]: 18.9 µM (active)
- IC50 [14]: 1.25 µM (active)
- AC50 [15]: 5.24 µM (active)
- AC50 [16]: 15 µM (active)
- AC50 [17]: 1.5 µM (active)
- AC50 [18]: 3.66 µM (active)
